How the values were obtained:
Test in all cases: relative viability (nuclei count vs DMSO), 5 days (fraction); higher = more cells survive
Olaparib + AZD7762 = compound: O=C(c1cc(Cc2n[nH]c(=O)c3ccccc23)ccc1F)N1CCN(C(=O)C2CC2)CC1 [Olaparib] + NC(=O)Nc1cc(-c2cccc(F)c2)sc1C(=O)N[C@H]1CCCNC1 [AZD7762] (partner 0.2 µM)
Procedure, shortened: (§1)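 Values are medians from duplicate plates. Each reflects relative viability, defined as the nuclei count of treated wells over that of vehicle wells. Lung cancer cell lines in 1536-well plates were pin-tool dosed one day after seeding with one drug alone or with a fixed anchor-drug dose plus five library-drug doses (not always all listed) in √10 steps, then fixed, stained and imaged at 4× after 5 days.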

Crizotinib + Lapatinib = compound: C[C@@H](Oc1cc(-c2cnn(C3CCNCC3)c2)cnc1N)c1c(Cl)ccc(F)c1Cl [Crizotinib] + CS(=O)(=O)CCNCc1ccc(-c2ccc3ncnc(Nc4ccc(OCc5cccc(F)c5)c(Cl)c4)c3c2)o1 [Lapatinib] (partner 2 µM)
Procedure, shortened: as §1

Carfilzomib + Vorinostat = compound: CC(C)C[C@H](NC(=O)[C@H](CCc1ccccc1)NC(=O)CN1CCOCC1)C(=O)N[C@@H](Cc1ccccc1)C(=O)N[C@@H](CC(C)C)C(=O)[C@@]1(C)CO1 [Carfilzomib] + O=C(CCCCCCC(=O)Nc1ccccc1)NO [Vorinostat] (partner 1 µM)
Procedure, shortened: as §1

Olaparib + OSI-027 = compound: O=C(c1cc(Cc2n[nH]c(=O)c3ccccc23)ccc1F)N1CCN(C(=O)C2CC2)CC1 [Olaparib] + COc1cccc2cc(-c3nc([C@H]4CC[C@H](C(=O)O)CC4)n4ncnc(N)c34)[nH]c12 [OSI-027] (partner 0.5 µM)
Procedure, shortened: as §1

Cell Line	relative viability (Olaparib + AZD7762; first compound 0.08 µM)	relative viability (Olaparib + AZD7762; first compound 0.253 µM)	relative viability (Olaparib + AZD7762; first compound 2.53 µM)	relative viability (Olaparib + AZD7762; first compound 8 µM)	relative viability (Crizotinib + Lapatinib; first compound 0.01 µM)	relative viability (Crizotinib + Lapatinib; first compound 0.1 µM)	relative viability (Crizotinib + Lapatinib; first compound 0.3162 µM)	relative viability (Crizotinib + Lapatinib; first compound 1 µM)	relative viability (Carfilzomib + Vorinostat; first compound 0.001 µM)	relative viability (Carfilzomib + Vorinostat; first compound 0.003162 µM)	relative viability (Carfilzomib + Vorinostat; first compound 0.01 µM)	relative viability (Carfilzomib + Vorinostat; first compound 0.03162 µM)	relative viability (Carfilzomib + Vorinostat; first compound 0.1 µM)	relative viability (Olaparib + OSI-027; first compound 0.08 µM)	relative viability (Olaparib + OSI-027; first compound 0.253 µM)	relative viability (Olaparib + OSI-027; first compound 2.53 µM)	relative viability (Olaparib + OSI-027; first compound 8 µM)	relative viability (Crizotinib + Lapatinib; first compound 0.03162 µM)
201T	0.641	0.609	0.522	0.383	0.891	1.03	1.05	1.06	0.929	1	0.985	0.93	0.514	0.724	0.611	0.699	0.764	
A549					0.996	1.03		1.05										1.06
A-427	0.786	0.671	0.579	0.427	0.852	1.09		1.12	0.874	0.859	0.842	0.307	0.15	0.558	0.469	0.396	0.389	1.07
ABC-1	0.799	0.75	0.842	0.691	1.2	1.16	1.12	1.36	0.706	0.534	0.35	0.274	0.257	0.801	0.52	0.488	0.55	1.1
BEN	0.638	0.571	0.727	0.664	0.697	0.642	0.719	0.749	0.549	0.503	0.552	0.598	0.273		0.268	0.301	0.296	0.69
CAL-12T	0.757	0.555	0.726	0.544	0.664	0.658		0.608	0.722	0.794	0.77	0.487	0.121	1.05	0.568	0.602	0.627	0.771
COR-L23					0.835	0.983	0.985	0.985	0.454	0.438	0.212	0.0648	0.0718	0.723	0.635	0.712	0.424	1.1
COR-L 105					0.345	0.373	0.32	0.374	0.95	1	0.805	0.381	0.283	0.77	0.679	0.487	0.584	0.38
Calu-6					1.07	1.07	1.05	0.991										1.1
ChaGo-K-1	0.955	0.785	0.811	0.626					0.718	0.802	0.589	0.235	0.157	0.649	0.506	0.533	0.464	
EBC-1					0.213	0.197	0.206	0.205										0.223
EKVX	0.81	0.618	0.782	0.741	0.218	0.175	0.186	0.186	0.663	0.958	0.783	0.561	0.231	0.79	0.626	0.61	0.765	0.191
EMC-BAC-2	1.25	1.08	1.08	0.91	0.852	0.911	0.749	0.887	0.434	0.587	0.524	0.247	0.126	0.41	0.364	0.357	0.358	0.897
EPLC-272H	0.289	0.163	0.176	0.114	0.861	0.945	0.9	1.11	0.518	0.417	0.108	0.055	0.0448	0.334	0.286	0.31	0.299	0.996
H3255	1.04	0.823	0.852	0.933	0.254	0.234	0.238	0.219	0.546	0.954	0.929		0.811	0.591	0.56	0.764	0.548	0.267
HARA	0.302	0.43	0.251	0.206	0.662	0.636	0.824	0.667	0.507	0.561	0.501	0.436	0.0635	0.68	0.446	0.47	0.438	0.699
HCC-15	1.24	1.11	1.23	1.08	0.831	0.886	0.549	0.836	0.927	0.821	0.951	0.506	0.132	0.83	0.652	0.6	0.638	0.881
HCC-44	1.01	1	1.03	1.07	0.96	1.14		1.05	1.2	1.1	1.13	1.17	0.604	0.55	0.424	0.434	0.565	1.02
HCC-78	0.839	0.664	0.672	0.737	0.77	0.697	0.261	1.26	0.433	0.467	0.461	0.303	0.283	0.373	0.379	0.349	0.332	0.828
HCC-366	0.258	0.196	0.168	0.0718	1	1.05		1.11	0.315	0.444	0.313	0.0693	0.0215	0.856	0.796	0.762	0.568	1.06
HCC-827	0.259	0.214	0.239	0.224	0.153	0.178	0.175	0.18	0.821	0.913	0.943	0.673	0.189	0.772	0.732	0.872	0.65	0.211
HOP-62	0.43	0.614	0.463	0.155	0.796	1.01	0.84	1	0.559	0.632	0.215	0.0689	0.0634	0.863	0.801	0.809	0.712	1.15
IA-LM					0.861	0.738	0.822	0.641	0.921	0.889	0.932	0.193	0.0116					0.954

Cell Line	relative viability (Olaparib + AZD7762; first compound 0.08 µM)	relative viability (Olaparib + AZD7762; first compound 0.253 µM)	relative viability (Olaparib + AZD7762; first compound 2.53 µM)	relative viability (Olaparib + AZD7762; first compound 8 µM)	relative viability (Crizotinib + Lapatinib; first compound 0.01 µM)	relative viability (Crizotinib + Lapatinib; first compound 0.1 µM)	relative viability (Crizotinib + Lapatinib; first compound 0.3162 µM)	relative viability (Crizotinib + Lapatinib; first compound 1 µM)	relative viability (Carfilzomib + Vorinostat; first compound 0.001 µM)	relative viability (Carfilzomib + Vorinostat; first compound 0.003162 µM)	relative viability (Carfilzomib + Vorinostat; first compound 0.01 µM)	relative viability (Carfilzomib + Vorinostat; first compound 0.03162 µM)	relative viability (Carfilzomib + Vorinostat; first compound 0.1 µM)	relative viability (Olaparib + OSI-027; first compound 0.08 µM)	relative viability (Olaparib + OSI-027; first compound 0.253 µM)	relative viability (Olaparib + OSI-027; first compound 2.53 µM)	relative viability (Olaparib + OSI-027; first compound 8 µM)	relative viability (Crizotinib + Lapatinib; first compound 0.03162 µM)
LC-2-ad	0.89	0.76	0.851	0.727	0.866	1.03		0.54	0.811	0.755	0.75	0.44	0.245	0.926	0.731	0.856	0.796	0.981
LCLC-97TM1	0.294	0.202		0.168	1.08	1.04		1.12	0.705	1.03	0.346	0.0531	0.0462	0.525	0.527	0.587	0.323	0.927
LCLC-103H	0.916	0.773	0.727	0.56					0.809	0.941	0.772	0.497	0.218	0.52	0.432	0.512	0.412	
NCI-H441	1.16	1.03	1	0.446					0.777	0.683	0.546	0.129	0.141	0.683	0.724	0.642	0.581	
NCI-H520					0.75	0.827	0.391	0.927	0.684	0.605	0.192	0.156	0.148	0.233	0.246	0.281	0.213	0.86
NCI-H522	0.974	0.896	0.809	0.705					0.888	1.01	0.841	0.426	0.412	0.783	0.659	0.723	0.642	
NCI-H661					0.551	0.43	0.469	0.539	0.821	0.861	0.808	0.553	0.215	0.7	0.61	0.708	0.621	0.461
NCI-H1299					0.966	0.896	0.996	0.955										0.942
NCI-H1563					0.88	0.936	0.753	0.789						0.75	0.745	0.806	0.753	0.962
NCI-H1623														0.511	0.457	0.474	0.42	
NCI-H1648	0.831	0.75		0.544					0.64	0.613	0.954	0.28	0.212		0.25		0.223	
NCI-H1650					0.699	0.828	0.363	0.799	0.65	0.475	0.19	0.152	0.127	0.842	0.515	0.72	0.816	0.819
NCI-H1703	0.119	0.193	0.143	0.141	1.23	1.07	1.17	1.02										1.18
NCI-H1792	0.774	0.559	0.496	0.254	0.827	0.958	0.78	0.842						0.759	0.652	0.712	0.669	0.918
NCI-H2009					0.845	0.956	0.812	0.93	0.717	0.821	0.757	0.179	0.0653	0.739	0.601	0.645	0.458	0.984
NCI-H2023					0.864	0.71	0.372	0.465	0.471	0.657	0.619	0.224	0.0546	0.445	0.356	0.406	0.276	0.884
NCI-H2228					0.814	1.06	0.488	0.412	0.728	0.657	0.468	0.101	0.0952	0.644	0.386	0.598	0.509	0.827
NCI-H2342	0.544	0.4	0.439	0.474					0.731	0.675	0.876	0.733	0.421	0.565	0.54	0.55	0.564	
SK-LU-1					0.833	0.859	0.889		0.772	0.864	0.533	0.219	0.198	0.345	0.331	0.382	0.24	0.953
SK-MES-1					0.415	0.51	0.43	0.541	1.11	1.12	1.15	0.579	0.156	0.674	0.553	0.577	0.459	0.414
SW 900	0.652	0.637	0.584	0.555						0.469	0.198	0.168	0.188	0.693	0.561	0.565	0.458	
SW 1573					1.13	0.956	1.07	1.08	0.648	1.31	0.243	0.0435	0.041	0.738	0.675	0.471	0.517	1.03
UMC-11						1.02		0.668	0.413	0.395	0.394	0.308	0.115	0.474	0.392	0.481	0.334	0.975

Reference: the supplement of paper PMC10307832
